18 compounds from patent US20240246967A1, “AXL COMPOUNDS” (ARCUS BIOSCIENCES, INC., priority 2021, published 2024) can be followed below.

This test addresses T1, Axl (Homo sapiens, UniProt P30530).
T1 sequence (P30530 26-894): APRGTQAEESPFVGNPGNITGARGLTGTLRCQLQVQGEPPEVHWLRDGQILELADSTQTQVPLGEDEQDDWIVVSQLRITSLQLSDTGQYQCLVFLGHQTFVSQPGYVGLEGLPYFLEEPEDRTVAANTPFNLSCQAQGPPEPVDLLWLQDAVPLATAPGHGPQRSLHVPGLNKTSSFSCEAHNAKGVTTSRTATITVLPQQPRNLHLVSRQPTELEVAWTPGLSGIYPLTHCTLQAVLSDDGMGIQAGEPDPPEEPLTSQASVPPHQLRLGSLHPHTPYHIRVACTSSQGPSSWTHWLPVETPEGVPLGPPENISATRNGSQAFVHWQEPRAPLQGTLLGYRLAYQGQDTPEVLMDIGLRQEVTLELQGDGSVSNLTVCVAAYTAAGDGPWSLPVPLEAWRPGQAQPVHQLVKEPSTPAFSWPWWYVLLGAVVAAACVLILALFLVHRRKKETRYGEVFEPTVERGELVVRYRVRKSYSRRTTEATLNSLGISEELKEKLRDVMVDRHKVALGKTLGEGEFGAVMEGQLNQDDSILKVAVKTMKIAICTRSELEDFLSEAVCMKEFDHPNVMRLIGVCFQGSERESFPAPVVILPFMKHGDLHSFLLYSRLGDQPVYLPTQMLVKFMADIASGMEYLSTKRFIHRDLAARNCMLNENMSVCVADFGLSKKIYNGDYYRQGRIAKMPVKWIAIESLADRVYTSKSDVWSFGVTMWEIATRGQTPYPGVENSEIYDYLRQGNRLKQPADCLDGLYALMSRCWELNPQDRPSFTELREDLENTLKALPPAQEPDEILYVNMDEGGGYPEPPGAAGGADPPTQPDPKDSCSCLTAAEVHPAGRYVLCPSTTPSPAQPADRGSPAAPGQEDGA
The test is described as follows: Axl NanoBRET intracellular kinase assay (intracellular binding, Cell Binding). Set-up: host or cells: HEK-293. Conditions: HEK-293 cells transfected with Axl-NanoLuc fusion vector; 0.35 μM K-5 NanoBRET tracer. The method in brief:
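BRET ratio (610 nm/450 nm) decrease from K-5 tracer displacement gave binding; IC50 by 4-parameter non-linear regression of percent activity. Live HEK-293 cells expressed transiently transfected Axl-NanoLuc. Compound 1 h, then 0.35 μM tracer 2 h, both 37 °C, 5% CO2.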
As for `CCS(=N)(=O)c1ccc(-c2n[nH]c3ncc(-c4ccc5c(c4)CCC(C)(N4CCC[C@H]4C)CC5)cc23)cc1` (stereo partly drawn) [Example 100, Ethyl(imino)[4-(5-{7-methyl-7-[(2R)-2-methylpyrrolidin-1-yl]-6,7,8,9-tetrahydro-5H-benzo[7]annulen-2-yl}-1H-pyrazolo[3,4-b]pyridin-3-yl)phenyl]-λ^6-sulfanone], the IC50 was in the range of 100 to 1000 nM.

In turn, `C[C@@H]1CCCN1[C@@H]1CCc2cc(-c3cnc4[nH]nc(-c5ccc(S(=O)(=O)C6CC6)cc5)c4c3)cnc2CC1` [Example 101, (2R)-1-(3-{3-[4-(Cyclopropanesulfonyl)phenyl]-1H-pyrazolo[3,4-b]pyridin-5-yl}-5H,6H,7H,8H,9H-cyclohepta[b]pyridin-7-yl)-2-methylpyrrolidine] had an IC50 greater than 1000 nM.

For the compound `C[C@@H]1CCCN1[C@H]1CCc2cc(-c3cnc4[nH]nc(-c5ccc(S(=O)(=O)C6CC6)cc5)c4c3)cnc2CC1` [Example 102, (2R)-1-[(7S)-3-{3-[4-(Cyclopropanesulfonyl)phenyl]-1H-pyrazolo[3,4-b]pyridin-5-yl}-5H,6H,7H,8H,9H-cyclohepta[b]pyridin-7-yl]-2-methylpyrrolidine], the IC50 is greater than 1000 nM.

In turn, `COC1CCN(S(=O)(=O)c2ccc(-c3n[nH]c4ncc(-c5ccc6c(c5)CCC(C)(N5CCC[C@H]5C)CC6)cc34)cc2)CC1` (stereo partly drawn) [Example 103, 3-(4-((4-Methoxypiperidin-1-yl)sulfonyl)phenyl)-5-(7-methyl-7-((R)-2-methylpyrrolidin-1-yl)-6,7,8,9-tetrahydro-5H-benzo[7]annulen-2-yl)-1H-pyrazolo[3,4-b]pyridine] registered a half-inhibitory concentration (IC50) of 100 to 1000 nM.

As for `C[C@@H]1CCCN1C1(C)CCc2ccc(-c3cnc4[nH]nc(-c5ccc(S(=O)(=O)N6CCC6)cc5)c4c3)cc2CC1` (stereo partly drawn) [Example 104, (2R)-1-(2-{3-[4-(Azetidine-1-sulfonyl)phenyl]-1H-pyrazolo[3,4-b]pyridin-5-yl}-7-methyl-6,7,8,9-tetrahydro-5H-benzo[7]annulen-7-yl)-2-methylpyrrolidine], the IC50 is less than 100 nM.

`C[C@@H]1CCCN1C1(C)CCc2ccc(-c3cnc4[nH]cc(-c5ccc(S(=O)(=O)C6CC6)cc5)c4c3)cc2CC1` (stereo partly drawn) [Example 105, (2R)-1-(2-{3-[4-(Cyclopropanesulfonyl)phenyl]-1H-pyrrolo[2,3-b]pyridin-5-yl}-7-methyl-6,7,8,9-tetrahydro-5H-benzo[7]annulen-7-yl)-2-methylpyrrolidine]: the IC50 is less than 100 nM.

Regarding `C[C@@H]1CCCN1C1(C)CCc2ccc(-c3cnc4[nH]nc(-c5ccc(N6CCOCC6)cc5)c4c3)cc2CC1` (stereo partly drawn) [Example 107, 4-[4-(5-{7-Methyl-7-[(2R)-2-methylpyrrolidin-1-yl]-6,7,8,9-tetrahydro-5H-benzo[7]annulen-2-yl}-1H-pyrazolo[3,4-b]pyridin-3-yl)phenyl]morpholine], the IC50 was greater than 1000 nM.

On to `COCCNCc1ccc(-c2n[nH]c3ncc(-c4ccc5c(c4)CCC(C)(N4CCC[C@H]4C)CC5)cc23)cc1` (stereo partly drawn) [Example 108, (2-Methoxyethyl)({[4-(5-{7-methyl-7-[(2R)-2-methylpyrrolidin-1-yl]-6,7,8,9-tetrahydro-5H-benzo[7]annulen-2-yl}-1H-pyrazolo[3,4-b]pyridin-3-yl)phenyl]methyl})amine], for which the IC50 fell in the range of 100 to 1000 nM.

In the case of `C[C@@H]1CCCN1C1CCc2ccc(-c3cnc4[nH]nc(-c5ccc(S(=O)(=O)C6CC6)cc5)c4c3)cc2C(C)(C)C1` (stereo partly drawn) [Example 109, (2R)-1-(2-{3-[4-(Cyclopropanesulfonyl)phenyl]-1H-pyrazolo[3,4-b]pyridin-5-yl}-9,9-dimethyl-6,7,8,9-tetrahydro-5H-benzo[7]annulen-7-yl)-2-methylpyrrolidine], the IC50 was less than 100 nM.

For the compound `COCCOc1ccc(-c2n[nH]c3ncc(-c4ccc5c(c4)CCC(C)(N4CCC[C@H]4C)CC5)cc23)cc1` (stereo partly drawn) [Example 110, 3-(4-(2-Methoxyethoxy)phenyl)-5-(7-methyl-7-((R)-2-methylpyrrolidin-1-yl)-6,7,8,9-tetrahydro-5H-benzo[7]annulen-2-yl)-1H-pyrazolo[3,4-b]pyridine], the half-maximal inhibitory concentration (IC50) is less than 100 nM.

Regarding `COCCS(=O)(=O)c1ccc(-c2n[nH]c3ncc(-c4ccc5c(c4)CCC(C)(N4CCC[C@H]4C)CC5)cc23)cc1` (stereo partly drawn) [Example 111, (2R)-1-(2-{3-[4-(2-Methoxyethanesulfonyl)phenyl]-1H-pyrazolo[3,4-b]pyridin-5-yl}-7-methyl-6,7,8,9-tetrahydro-5H-benzo[7]annulen-7-yl)-2-methylpyrrolidine], the 50% inhibitory concentration (IC50) was less than 100 nM.

For `O=C([C@@H]1CCCN1)N1CCc2ccc(-c3cnc4[nH]nc(-c5ccc(S(=O)(=O)C6CC6)cc5)c4c3)cc2CC1` [Example 112, 7-{3-[4-(Cyclopropanesulfonyl)phenyl]-1H-pyrazolo[3,4-b]pyridin-5-yl}-3-[(2S)-pyrrolidine-2-carbonyl]-2,3,4,5-tetrahydro-1H-3-benzazepine], the half-inhibitory concentration (IC50) is 100 to 1000 nM.

For the compound `O=C([C@H]1CCCN1)N1CCc2ccc(-c3cnc4[nH]nc(-c5ccc(S(=O)(=O)C6CC6)cc5)c4c3)cc2CC1` [Example 113, 7-{3-[4-(Cyclopropanesulfonyl)phenyl]-1H-pyrazolo[3,4-b]pyridin-5-yl}-3-[(2R)-pyrrolidine-2-carbonyl]-2,3,4,5-tetrahydro-1H-3-benzazepine], the IC50 lay within 100 to 1000 nM.

The compound `COc1cc(-c2n[nH]c3ncc(-c4ccc5c(c4)CCC(C)(N4CCC[C@H]4C)CC5)cc23)ccc1OC[C@H]1COCCO1` (stereo partly drawn) [Example 114, (2R)-1-{2-[3-(4-{[(2R)-1,4-Dioxan-2-yl]methoxy}-3-methoxyphenyl)-1H-pyrazolo[3,4-b]pyridin-5-yl]-7-methyl-6,7,8,9-tetrahydro-5H-benzo[7]annulen-7-yl}-2-methylpyrrolidine] came in with an IC50 of less than 100 nM.

As to `CC1(N[C@H]2CCOC2)CCc2ccc(-c3cnc4[nH]nc(-c5ccc(S(=O)(=O)C6CC6)cc5)c4c3)cc2CC1` (stereo partly drawn) [Example 115, (3S)-N-(2-{3-[4-(Cyclopropanesulfonyl)phenyl]-1H-pyrazolo[3,4-b]pyridin-5-yl}-7-methyl-6,7,8,9-tetrahydro-5H-benzo[7]annulen-7-yl)oxolan-3-amine], the IC50 lay in the range of 100 to 1000 nM.

`C[C@@H]1CCCN1C1(C)CCc2ccc(-c3cnc4[nH]nc(-c5ccc(C(=O)N[C@H]6CCOC6)cc5)c4c3)cc2CC1` (stereo partly drawn) [Example 117, 4-(5-{7-Methyl-7-[(2R)-2-methylpyrrolidin-1-yl]-6,7,8,9-tetrahydro-5H-benzo[7]annulen-2-yl}-1H-pyrazolo[3,4-b]pyridin-3-yl)-N-[(3S)-oxolan-3-yl]benzamide] gave an IC50 of less than 100 nM.

`C[C@@H]1CCCN1C1(C)CCc2ccc(-c3cnc4[nH]nc(-c5ccc(C(=O)N6CCCC6)cc5)c4c3)cc2CC1` (stereo partly drawn) [Example 118, (2R)-2-Methyl-1-(7-methyl-2-{3-[4-(pyrrolidine-1-carbonyl)phenyl]-1H-pyrazolo[3,4-b]pyridin-5-yl}-6,7,8,9-tetrahydro-5H-benzo[7]annulen-7-yl)pyrrolidine] had a 50% inhibitory concentration (IC50) of less than 100 nM.

Regarding `Cc1cc(-c2n[nH]c3ncc(-c4ccc5c(c4)CCN(C4CC4)CC5)cc23)ccc1C(=O)N1CCNCC1` [Example 119, 3-Cyclopropyl-7-{3-[3-methyl-4-(piperazine-1-carbonyl)phenyl]-1H-pyrazolo[3,4-b]pyridin-5-yl}-2,3,4,5-tetrahydro-1H-3-benzazepine], the IC50 was 100 to 1000 nM.
